Assay results reported in patent US10472346B2, “Potent gamma-secretase modulators” (The General Hospital Coporation, priority 2014, dated 2019).

Key:
Aβ40 levels [1] = test: Effects of 7 days treatment on mouse plasma and brain Aβ40 levels; assay type: in vivo, male C57BL/6J mouse; settings: for percent reduction of Aβ40 levels in brain: mouse brain; for percent reduction of Aβ40 levels in plasma: mouse plasma
Procedure: FIG. 3: The effects of Compound 1 after 7-days treatment on Aβ40 levels in male C57BL/6J mouse plasma A) (plasma) where the percent reduction was 62%, 81% and 91% for dosages of 10, 25, and 50 mg/kg, respectively and male C57BL/6J mouse brain B) where the percent reduction was 46%, 69% and 82% for dosages of 10, 25, and 50 mg/kg, respectively.
Effects of Compound 1 (7 Days Treatment) on Mouse Plasma and Brain Aβ40 Levels. The effects of Compound 1 after 7-days treatment on Aβ40 levels in mouse plasma and brain are depicted in FIG. 3A (plasma) and FIG. 3B (brain). For FIG. 3A, the percent reduction was 62%, 81% and 91% for dosages of 10, 25, and 50 mg/kg, respectively. For FIG. 3B, the percent reduction was 46%, 69% and 82% for dosages of 10, 25, and 50 mg/kg, respectively.

Aβ40 levels [2] = test: Effects of 9 days treatment on rat plasma and CSF Aβ40 levels; assay type: in vivo, male Sprague-Dawley rat; settings: for reduction in CSF Aβ40 levels: rat CSF; for reduction in plasma Aβ40 levels: rat plasma
Procedure: FIG. 6: The effects of Compound 1 after 9-days treatment on Aβ40 levels in male Sprague-Dawley rat plasma A) where the reduction in plasma levels was 61%, 89% and 95%, for dosages of 5, 25, and 50 mg/kg, respectively and in male Sprague-Dawley rat CSF B) where the reduction in CSF levels was 47%, 75% and 85%, for dosages of 5, 25, and 50 mg/kg, respectively.
Effects of Compound 1 (9 Days Treatment) on Rat Plasma and CSF Aβ40 Levels. The effects of Compound 1 after 9-days treatment on Aβ40 levels in rat plasma and CSF are depicted in FIG. 6A (plasma) and FIG. 6B (CSF). For FIG. 6A, the reduction in plasma levels was 61%, 89% and 95%, for dosages of 5, 25, and 50 mg/kg, respectively. For FIG. 6B, the reduction in CSF levels was 47%, 75% and 85%, for dosages of 5, 25, and 50 mg/kg, respectively.

## COc1nc(-c2cc(C)c(N[C@@H](C)c3ccc(F)cc3)nn2)ccc1-n1cnc(C)c1 [Compound 1, (S)—N-(1-(4-fluorophenyl)ethyl)-6-(6-methoxy-5-(4-methyl-1H-imidazol-1-yl)pyridin-2-yl)-4-methylpyridazin-3-amine]
Aβ40 levels [1]; 10 mg/kg
  percent reduction of Aβ40 levels in brain: 46%
  percent reduction of Aβ40 levels in plasma: 62%
Aβ40 levels [1]; 25 mg/kg
  percent reduction of Aβ40 levels in brain: 69%
  percent reduction of Aβ40 levels in plasma: 81%
Aβ40 levels [1]; 50 mg/kg
  percent reduction of Aβ40 levels in brain: 82%
  percent reduction of Aβ40 levels in plasma: 91%
Aβ40 levels [2]; 5 mg/kg
  reduction in CSF Aβ40 levels: 47%
  reduction in plasma Aβ40 levels: 61%
Aβ40 levels [2]; 25 mg/kg
  reduction in CSF Aβ40 levels: 75%
  reduction in plasma Aβ40 levels: 89%
Aβ40 levels [2]; 50 mg/kg
  reduction in CSF Aβ40 levels: 85%
  reduction in plasma Aβ40 levels: 95%
